Patent publication US10501493B2, “Broad spectrum antibiotics” (priority 2011, dated 2019)
In brackets after ≈: the same amount, converted by molar mass. Where two headings read alike, the source gives them in different places.

Tests used:
[1] = test system: E. col ATCC 25922 LepB(P84L); assay: In vitro antimicrobial activity, MIC by broth micro-dilution; format: cell-based, E. coli; details: for MIC: Escherichia coli, ATCC25922, read-out: MIC class, E. col ATCC 25922 LepB(P84L)
Procedure: (§1) In vitro antimicrobial activity of each compound was determined by measuring minimal inhibitor concentrations (MICs) using the broth micro-dilution technique as approved by the Clinical and Laboratory Standards Institute (CLSI). The microbiological panel examined contains a number of bacterial species including E. coli MG1655, P. aeruginosa, S. aureus, and S. epidermidis. In addition, the panel includes previously described pseudo-isogenic strains of these four species (P. A. Smith et al. Chem Biol 2010, 1223-1231), in which a specific proline residue in SPase (called LepB in Gram-negative organisms an SpsB in Gram-positive organisms) has been mutated to a different amino acid. The resulting strains have increased susceptibility to the arylomycin class of antibiotics. Analysis of the strains lacking this proline residue will increases the dynamic range of the assay, and comparison of the sensitivities of the isogenic pairs provides ongoing confirmation that the activity gained through derivatization is specific to the inhibition of SPase. Briefly, bacterial streaks were grown on Mueller Hinton Agar II (Difco™) with or without 5% lysed horse blood for a period of 24 hours at either 35° C. or 28° C. Bacterial colonies were suspended in cation adjusted Mueller Hinton broth and diluted to a final concentration of 1*10^7 colony forming units/ml. Two-fold serial dilutions of each compound were arrayed into 96-well plates (100 μl final volume per well) and 5 ul of the bacterial suspension will be added. […] MICs were periodically checked plating serial dilutions of MIC wells and quantitatively determining viable colonies.

[2] = test system: S. aureus NCTC-8325 SpsB(P295); assay: as above; format: cell-based; details: for MIC: Staphylococcus aureus, NCTC8325, read-out: MIC class, S. aureus NCTC-8325 SpsB(P295)
Procedure: as §1

S. pneumoniae D39 = assay: as above; format: cell-based; details: for MIC: Streptococcus pneumoniae, D39, read-out: MIC class, S. pneumoniae D39
Procedure: as §1

E. coli ATCC 25922 = assay: as above; format: cell-based; details: for MIC: Escherichia coli, ATCC25922, read-out: MIC class, E. coli ATCC 25922
Procedure: as §1

S. epidermidis RP62A = assay: as above; format: cell-based; details: for MIC: Staphylococcus epidermidis, RP62A, read-out: MIC class, S. epidermidis RP62A
Procedure: as §1

S. aureus SPase = molecular target: T1, S. aureus SPase (Staphylococcus aureus, UniProt P0A070); assay: Enzymatic fluorogenic substrate cleavage assay for IC50; format: biochemical
T1 construct: Full length His-tagged S. aureus SPase protein was expressed similarly; His-tag; made in house; host or cells: E. coli BL21(DE3)
Procedure: (§2) Full length His-tagged E. coli SPase proteins were expressed in E. coli BL21(DE3) containing the plasmid pET23-lepB, P. A. Smith et al. Chem Biol 2010, 1223-1231. Briefly, saturated overnight cultures grown in 20 ml of Luria-Bertani medium supplemented with ampicillin were subcultures into 1.5 L of Luria-Bertani, and shaken at 37° C. until an optical density at 600 nm of 0.4-0.5 was achieved. Protein expression was induced with Isopropyl β-D-1-thiogalactopyranoside (ITPG) at a final concentration of […], and purified using nickel affinity chromatography. Full length His-tagged S. aureus SPase protein was expressed similarly from E. coli BL21(DE3) containing the plasmid pCDF1-SaSpsB or pCDF1-SaSpsB(P29S) and purified similarly to the E. coli protein with the following exceptions. SPase protein was solubilized using 300 mM NaCl, 20 mM Tris pH 8.06, 5 mM Imidazole, 10% glycerol, 1% Triton X-100, prior to purification in Ni-NTA Superflow resin and resin bound protein was washed in a similar buffer containing 1% Elugent in place of Triton X-100 prior to protein eluted in wash buffer supplemented with 300 mM imidazole. Protein purify was judged to exceed 95% by visual inspection of SDS-PAGE followed by Comassie staining. All protein concentrations were determined by BCA assay.
(§3) In addition to the equilibrium binding assays, compound activity is also characterized by measuring inhibition of E. coli and S. aureus substrate cleavage reactions using fluorogenic peptides developed at RQx Pharmaceuticals. Briefly, two fluorogenic peptide substrates (decanoyl-LSSPA Y^NO2 A ? ADK^abzPD (SEQ ID NO: 1) and decanyol-LTPTAY^NO2 A ? ASKK^abzDD (SEQ ID NO: 2)) have been synthesized, where abz is the fluorescence donor 2-aminobenzamide, YNO2 is the fluorescence acceptor 3-nitrotyrosine, and the cleavage site is indicated with an arrow. These substrates are processed with a second order rate constant (Kcat/KM) of 10^5 M^−1s^−1 for E. coli and S. aureus SPase enzymes, and cleavage results in a greater than 10-fold increase in fluorescence signal (excitation at 314 nm, emission at 416 nm) as measured using a SpectraMax M2 fluorescence microplate reader. Two-folder serial dilutions of compound are prepared in cleavage reaction buffer consisting of: 50 mM Tris-HCl pH 8.0, 100 mM NaCl, 10% glycerol, 1 mM EDTA, detergent (1% NP-40 or 0.1% Elugent™ for E. coli LepB or S. aureus SpsB respectively) and either 2.5 nM of E. coli SPase enzyme or 10 nM of S. aureus SPase enzyme. 40 μl aliquots of the compound dilution series in the protein/buffer solution is transferred to black 384-well polypropylene plates, and 10 μl of fluorogenic peptide at a concentration of 100 μM is added to initiate the reaction. The increase in fluorescence, corresponding to substrate cleavage, is monitored continuously at room temperature for 30 minutes and initial reaction rates are calculated based in the linear increase in fluorescence from the initial 30 minutes of the reaction. Reaction rates are plotted as a function of compound concentration, and IC50 values are determined nonlinear regression analysis (SoftMax® Pro v5.4) of the sigmoidal dose-response curve.

E. coli SPase = molecular target: T2, E. coli SPase (Escherichia coli, UniProt P00803); assay: as above; format: biochemical
T2 construct: Full length His-tagged E. coli SPase proteins were expressed in E. coli BL21(DE3); His-tag; made in house; host or cells: E. coli BL21(DE3)
Procedure: as §2, §3

S. aurues NCTC-8325 = assay: In vitro antimicrobial activity, MIC by broth micro-dilution; format: cell-based, S. aureus; details: for MIC: Staphylococcus aureus, NCTC8325, read-out: MIC class, S. aurues NCTC-8325
Procedure: as §1

Compound	MIC [1] [µg/mL]	MIC [2] [µg/mL]	MIC (S. pneumoniae D39) [µg/mL]	MIC (E. coli ATCC 25922) [µg/mL]	MIC (S. epidermidis RP62A) [µg/mL]	IC50 (S. aureus SPase) [nM]	IC50 (E. coli SPase) [nM]	MIC class, E. col ATCC 25922 LepB(P84L) [1]	MIC class, S. aureus NCTC-8325 SpsB(P295) [2]	MIC class, S. pneumoniae D39 (S. pneumoniae D39)	MIC class, E. coli ATCC 25922 (E. coli ATCC 25922)	MIC class, S. epidermidis RP62A (S. epidermidis RP62A)	IC50 (S. aureus SPase; fluorogenic peptide cleavage, read-out: IC50 class S. aureus SPase) [nM]	IC50 (E. coli SPase; fluorogenic peptide cleavage, read-out: IC50 class E. coli SPase) [nM]	MIC class, S. aurues NCTC-8325 (S. aurues NCTC-8325; S. aurues NCTC-8325)	MIC (S. aurues NCTC-8325) [µg/mL]
CCCCCCCCCCCCCCCC(=O)N(C)[C@H](CO)C(=O)N[C@H](Cc1ccccc1)C(=O)NCC(=O)N(C)[C@@H]1C(=O)N[C@@H](C)C(=O)N[C@H](C(=O)O)Cc2ccc(O)c(c2)-c2cc1ccc2O [Compound 39]	< 8	> 64	16 to 64 (≈ 16.7 to 66.9 µM)	> 64	16 to 64 (≈ 16.7 to 66.9 µM)	< 1000	< 1000	–	–	–	–	–	–	–	–	–
CCCCCCCCCCCCCCCC(=O)N(C)[C@H](CO)C(=O)N[C@H](CCc1ccccc1)C(=O)NCC(=O)N(C)[C@@H]1C(=O)N[C@@H](C)C(=O)N[C@H](C(=O)O)Cc2ccc(O)c(c2)-c2cc1ccc2O [Compound 41]	> 64	> 64	> 64	> 64	< 8	< 1000	< 1000	–	–	–	–	–	–	–	–	–
CCCCCCCCCCCCCCCC(=O)N(C)[C@H](CN)C(=O)N[C@H](C)C(=O)NCC(=O)N(C)[C@@H]1C(=O)N[C@@H](C)C(=O)N[C@H](C(=O)O)Cc2ccc(O)c(c2)-c2cc1ccc2O [Compound 52]	–	–	–	–	–	–	–	a (MIC >64 μg/ml)	b (MIC 16-64 μg/ml)	b (MIC 16-64 μg/ml)	a (MIC >64 μg/ml)	b (MIC 16-64 μg/ml)	< 1000	1000 to 10000	–	–
CCCCCCCCCCCCCCCC(=O)N[C@H](CCN)C(=O)N[C@H](C)C(=O)NCC(=O)N(C)[C@@H]1C(=O)N[C@@H](C)C(=O)N[C@H](C(=O)O)Cc2ccc(O)c(c2)-c2cc1ccc2O [Compound 53]	> 64	> 64	16 to 64 (≈ 18.2 to 72.7 µM)	> 64	16 to 64 (≈ 18.2 to 72.7 µM)	< 1000	1000 to 10000	–	–	–	–	–	–	–	–	–
CCCCCCCCCCCCCCCC(=O)N(C)[C@H](CO)C(=O)N[C@H](C)C(=O)NCC(=O)N(C)[C@@H]1C(=O)N[C@@H](C)C(=O)N[C@H](C(=O)NCCO)Cc2ccc(O)c(c2)-c2cc1ccc2O [Compound 54]	< 8	16 to 64 (≈ 17.3 to 69.3 µM)	< 8	> 64	< 8	1000 to 10000	< 1000	–	–	–	–	–	–	–	–	–
CCCCCCCCCCCCCCCC(=O)N(C)[C@H](CO)C(=O)N[C@H](C)C(=O)NCC(=O)N(C)[C@@H]1C(=O)N[C@@H](C)C(=O)N[C@H](C(=O)OCCN)Cc2ccc(O)c(c2)-c2cc1ccc2O [Compound 55]	16 to 64 (≈ 17.3 to 69.3 µM)	> 64	< 8	> 64	< 8	1000 to 10000	1000 to 10000	–	–	–	–	–	–	–	–	–
CCCCCCCCCCCCCCCC(=O)N(C)[C@H](CO)C(=O)N[C@H](C)C(=O)NCC(=O)N(C)[C@@H]1C(=O)N[C@@H](C)C(=O)N[C@H](C(=O)N[C@@H](C)CO)Cc2ccc(O)c(c2)-c2cc1ccc2O [Compound 56]	> 64	> 64	16 to 64 (≈ 17.1 to 68.2 µM)	> 64	< 8	> 10000	1000 to 10000	–	–	–	–	–	–	–	–	–
CCCCCCCCCCCCCCCC(=O)N(C)[C@H](CO)C(=O)N[C@H](C)C(=O)NCC(=O)N(C)[C@@H]1C(=O)N[C@@H](C)C(=O)N[C@H](C(=O)OC[C@H](C)N)Cc2ccc(O)c(c2)-c2cc1ccc2O [Compound 57]	16 to 64 (≈ 17.1 to 68.2 µM)	> 64	16 to 64 (≈ 17.1 to 68.2 µM)	> 64	< 8	1000 to 10000	1000 to 10000	–	–	–	–	–	–	–	–	–
CCCCc1ccc(-c2ccc(C(=O)N(C)[C@H](CO)C(=O)N[C@H](C)C(=O)N[C@@H](CCCCN)C(=O)N(C)[C@@H]3C(=O)N[C@@H](C)C(=O)N[C@H](C(=O)O)Cc4ccc(O)c(c4)-c4cc3ccc4O)cc2)cc1 [Compound 96]	–	–	–	–	–	–	–	b (MIC 16-64 μg/ml)	a (MIC >64 μg/ml)	a (MIC >64 μg/ml)	a (MIC >64 μg/ml)	b (MIC 16-64 μg/ml)	–	–	a (MIC >64 μg/ml)	–
CCCCCCc1ccc(C(=O)N(C)[C@H](CO)C(=O)N[C@H](C)C(=O)N[C@@H](CCCCN)C(=O)N(C)[C@@H]2C(=O)N[C@@H](C)C(=O)N[C@H](C(=O)O)Cc3ccc(O)c(c3)-c3cc2ccc3O)cc1 [Compound 97]	16 to 64 (≈ 17.7 to 70.9 µM)	–	> 64	> 64	16 to 64 (≈ 17.7 to 70.9 µM)	–	–	–	–	–	–	–	–	–	–	> 64
CCCCc1ccc(-c2ccc(C(=O)N[C@H](CO)C(=O)N[C@H](C)C(=O)N[C@@H](CCCCN)C(=O)N(C)[C@@H]3C(=O)N[C@@H](C)C(=O)N[C@H](C(=O)O)Cc4ccc(O)c(c4)-c4cc3ccc4O)cc2)cc1 [Compound 98]	< 8	–	> 64	> 64	16 to 64 (≈ 17.1 to 68.4 µM)	–	–	–	–	–	–	–	–	–	–	> 64
